“Also recorded” adds a separate entry of the source.
Columns and labels:
[1] = test system: NF-AT (Nuclear Factor of Activated T Cells) protein; assay: NF-AT transcriptional activity, β-galactosidase reporter in Jurkat cells induced by A23187 and PMA; format: cell-based, human
Experimental: Cells (3×10^6 cells/ml) were incubated with 10 μM compound according to Example 2 in RPMI-1640 medium (pH=7.4) for 20 min at 37° C. Following this, incubation lasted for an additional 4 h in the presence of 0.5 μM A23187 and 50 ng/ml PMA (12-O-tetradecanoylphorbol-13-acetate). Induced effects can be determined by the β-galactosidase activity of cells treated with the compound according to Example 2 and untreated cells as it catalyzes the transformation of FDG (fluorescein di-β-D-galactopyranoside) into fluorescein. Reading of results was carried out with a SpectraFluor Plus plate reader. Decrease of β-galactosidase activity was compared to the effect of 1 μM cyclosporine A which was served as a positive control.

[2] = test system: BALB/c ear skin graft on C57BL/6 recipient mice; assay: Mouse skin transplantation, graft rejection scoring; format: in vivo; settings: 5 mg/kg once every day from transplantation; Example 2 orally, tacrolimus intraperitoneal; scoring at day 9 and day 10
Experimental: Mouse skin transplantation is a standard method to assay host T cell responses to MHC-disparate donor antigens, which protocol was followed in the present example (Garrod and Cahalan; 2008). Briefly, WT C57BL/6 recipient mice (8-12 weeks old) and WT BALB/c donor mice (8-12 weeks old) were anesthetized with a combination of 10 mg/kg Xylazine and 100 mg/kg Ketamine administered by i.p. injection and 0.05 mg/kg Buprenorphine was administered by subcutaneous injection for analgesia. Ear skin (1.0 cm2) from the WT BALB/c donor mouse was grafted onto the flank of the WT C57BL/6 recipient. The implanted skin (graft) was covered with a sterile bandage, which was removed on day 7 post-transplant.
Recipients received either no treatment (controls), or treated with compound according to Example 2 orally at 5 mg/kg dose, once every day until the end of the experiment from the day of transplantation. […]
Different scores were used to define the quality of the grafts: intact grafts (Score 0), early stages of rejection (Score 1-4, corresponding to first clear signals of graft rejection: 1; >25% rejection rate: 2; >50% rejection rate: 3; >75% rejection rate: 4) up to complete graft rejection (Score 5). […] Average scores with SEM were calculated for each group.

HMOX-1 gene = assay: Gene expression in primary astrocytes by qRT-PCR; format: cell-based, rat; settings: 3 h, Example 2 at 330 nM and 1000 nM, PBT2 at 1000 nM
Experimental: (§1) Pure astrocyte culture was obtained from neonatal rats according to the protocol found in literature (Protocols for Neural Cell Culture 2001, pp 117-127. ch 9. Ruth Cole, Jean de Vellis. Preparation of Astrocyte, Oligodendrocyte, and Microglia Cultures from Primary Rat Cerebral Cultures). Astrocytes (1 million) were cultured in 100 mm TC-treated culture dishes (Orange Scientific, Belgium) in an incubator set at 37° C. and 5% CO2 with humid air. The R-enantiomeric derivative according to Example 2 was added to cells in two final concentrations: 330 nM and 1000 nM. Cells were also treated with 1000 nM PBT2 which bears the basic structure of the R-enantiomer according to Example 2 (8-hydroxy-quinoline ring) but contains conformational differences and was developed for the treatment of neurodegenerative disorders (Pub. No.: WO/2004/007461). Treatments were carried out with a 100 μM DMSO-based stock solution. Control cells were treated with the same amount of DMSO without the agent. Each treatment was conducted in three separate culture dishes. After treatment, cells were incubated at 37° C. for 3 h, then the medium was removed, cells were washed with PBS and total RNA was extracted from cells with the Accuzol™ Total RNA Extraction Solution (Bioneer, Daejeon, South Korea), according to the manufacturer's protocol. cDNA transcription was carried out with the High Capacity cDNA Reverse Transcription Kit (Life Technologies, Foster City, Calif., USA). During the test, the expression of four genes (PGK1, EPO, HMOX-1, VEGF) controlled by HIF1a was determined by qRT-PCR, with HPRT gene serving as a control. Relative expression of genes in treated samples was compared to untreated controls. The PCR was conducted with a LightCycler® Nano Instrument (Roche, Budapest, Hungary) in the presence of UPL (Universal Probe Library) probes (HPRT: 95, HMOX1: 4, EPO: 16, VEGF: 1, PGK1: 66), specific primers (HPRT1: 5′-gaccggttctgtcatgtcg-3′, HPRT2: 5′-[…]-3′; HMOX1-1: 5′-[…]-3′, HMOX1-2: 5′-ctgcagctcctcaaacagc-3′; EPO1: 5′-[…]-3′, EPO2: 5′-ccttctgcacagcccatt-3′; VEGF1: 5′-[…]-3′, VEGF2: 5′-[…]-3′; PGK1-1: 5′-[…]-3′, PGK1-2: 5′-gacttggctccattgtcca-3′) in 20 μl PCR reaction volume with 20 ng cDNA template and 10 μl Lightcycler DNA Probes Master (5×) Reagent Kit (Roche) according to the following protocol: activation of enzyme at 95° C. for 10 min, 50 cycles: denaturation at 95° C. for 15 sec, hybridization and polymerization, then detection at 60° C. for 30 sec.

PGK1 gene = assay: Gene expression in primary astrocytes by qRT-PCR; format: cell-based, rat; settings: in the cells
Experimental: as §1

VEGF gene = assay: Gene expression in primary astrocytes by qRT-PCR; format: cell-based, rat; settings: in the cells
Experimental: as §1

EPO gene = assay: Gene expression in primary astrocytes by qRT-PCR; format: cell-based, rat; settings: 3 h, Example 2 at 330 nM and 1000 nM, PBT2 at 1000 nM
Experimental: as §1

Cc1ccnc(N[C@H](c2ccc(C(F)(F)F)cc2)c2ccc3cccnc3c2O)n1 [Example 2, 7-[(R)-[(4-Methylpyrimidin-2-yl)amino][4-(trifluoromethyl)phenyl]methyl]quinolin-8-ol]
inhibition of transcriptional induction regulated by NF-AT (concentration range in words) [1]: inhibits in micromolar concentration
IC50 ([1]; Homo sapiens, Jurkat cells, 0.5 μM A23187 and 50 ng/ml PMA, 4 h, read-out: half-value concentration for reduction of the transcriptional activity of NF-AT protein): 2200 nM
skin graft rejection score (0-5) [2]: smaller score values both on day 9 and on day 10
activation of HMOX-1 gene expression (HMOX-1 gene): capable to increase the gene activity; also recorded: caused the induction of HMOX-1 in astrocytes; also recorded: dose-dependent and robust activation
increase of PGK-1 gene activity (PGK1 gene): capable to increase the gene activity
increase of VEGF gene activity (VEGF gene): capable to increase the gene activity
activation of EPO gene expression (EPO gene): capable to increase the gene activity; also recorded: highest inductive effect; also recorded: dose-dependent and robust activation
